Data as given in US8877748B2, “Heterocyclic fused anthraquinone derivatives, manufacturing method and pharmaceutical composition using thereof” (National Defense Medical Center, priority 2012, dated 2014).

Tests used:
MALME-3M = experiment: NCI one-dose screening, melanoma MALME-3M; type: cell-based, human; conditions: 10 μM
M14 = experiment: NCI one-dose screening, melanoma M14; type: cell-based, human; conditions: 10 μM
SK-OV-3 = experiment: NCI one-dose screening, ovarian cancer SK-OV-3; type: cell-based, human; conditions: 10 μM
SK-MEL-28 = experiment: NCI one-dose screening, melanoma SK-MEL-28; type: cell-based, human; conditions: 10 μM
BT-549 = experiment: NCI one-dose screening, breast cancer BT-549; type: cell-based, human; conditions: 10 μM
OVCAR-8 = experiment: NCI one-dose screening, ovarian cancer OVCAR-8; type: cell-based, human; conditions: 10 μM
RXF, 393 = experiment: NCI one-dose screening, renal cancer RXF, 393; type: cell-based, human; conditions: 10 μM
NCI-H226 = experiment: NCI one-dose screening, non-small cell lung cancer NCI-H226; type: cell-based, human; conditions: 10 μM
UACC-62 = experiment: NCI one-dose screening, melanoma UACC-62; type: cell-based, human; conditions: 10 μM
OVCAR-3 = experiment: NCI one-dose screening, ovarian cancer OVCAR-3; type: cell-based, human; conditions: 10 μM
[1] = tested on: PC-3 prostate cancer cell line; experiment: SRB assay cell viability, PC-3 prostate cancer cell line; type: cell-based, human; conditions: PC-3 prostate cancer cell line, Table II prints no unit, μM printed, read-out: SRB assay: 50% inhibition of cancer cell proliferation of sample concentration (IC50) of PC-3 prostate cancer cell line
HOP-62 = experiment: NCI one-dose screening, non-small cell lung cancer HOP-62; type: cell-based, human; conditions: 10 μM
MDA-MB-231/ATCC = experiment: NCI one-dose screening, breast cancer MDA-MB-231/ATCC; type: cell-based, human; conditions: 10 μM
[2] = NCI one-dose screening, renal cancer A489; type: cell-based, human; conditions: 10 μM
KM12 = experiment: NCI one-dose screening, colon cancer KM12; type: cell-based, human; conditions: 10 μM
TK-10 = experiment: NCI one-dose screening, renal cancer TK-10; type: cell-based, human; conditions: 10 μM
SK-MEL-5 = experiment: NCI one-dose screening, melanoma SK-MEL-5; type: cell-based, human; conditions: 10 μM
U251 = experiment: NCI one-dose screening, CNS cancer U251; type: cell-based, human; conditions: 10 μM
MDA-MB-468 = experiment: NCI one-dose screening, breast cancer MDA-MB-468; type: cell-based, human; conditions: 10 μM
K562cell line = experiment: NCI one-dose screening, leukemia K562; type: cell-based, human; conditions: 10 μM
SNB-75 = experiment: NCI one-dose screening, CNS cancer SNB-75; type: cell-based, human; conditions: 10 μM
EKVX = experiment: NCI one-dose screening, non-small cell lung cancer EKVX; type: cell-based, human; conditions: 10 μM
SF-295 = experiment: NCI one-dose screening, CNS cancer SF-295; type: cell-based, human; conditions: 10 μM
SNB-19 = experiment: NCI one-dose screening, CNS cancer SNB-19; type: cell-based, human; conditions: 10 μM
IGROV1 = experiment: NCI one-dose screening, ovarian cancer IGROV1; type: cell-based, human; conditions: 10 μM
OVCAR-5 = experiment: NCI one-dose screening, ovarian cancer OVCAR-5; type: cell-based, human; conditions: 10 μM
HS 578-T = experiment: NCI one-dose screening, breast cancer HS 578-T; type: cell-based, human; conditions: 10 μM; Breast cancer
MOLT-4 = experiment: NCI one-dose screening, leukemia MOLT-4; type: cell-based, human; conditions: 10 μM
NCI-H522 = experiment: NCI one-dose screening, non-small cell lung cancer NCI-H522; type: cell-based, human; conditions: 10 μM
CAKI-1 = experiment: NCI one-dose screening, renal cancer CAKI-1; type: cell-based, human; conditions: 10 μM
PRMI-8226 cell line = experiment: NCI one-dose screening, leukemia PRMI-8226; type: cell-based, human; conditions: 10 μM
DU145 = experiment: NCI one-dose screening, prostate cancer DU145; type: cell-based, human; conditions: 10 μM
MCF7 = experiment: NCI one-dose screening, breast cancer MCF7; type: cell-based, human; conditions: 10 μM
HT29 = experiment: NCI one-dose screening, colon cancer HT29; type: cell-based, human; conditions: 10 μM
UO-31 = experiment: NCI one-dose screening, renal cancer UO-31; type: cell-based, human; conditions: 10 μM
A549/ATCC = experiment: NCI one-dose screening, non-small cell lung cancer A549/ATCC; type: cell-based, human; conditions: 10 μM
HCT-116 = experiment: NCI one-dose screening, colon cancer HCT-116; type: cell-based, human; conditions: 10 μM
SR = experiment: NCI one-dose screening, leukemia SR; type: cell-based, human; conditions: 10 μM
HCT-15 = experiment: NCI one-dose screening, colon cancer HCT-15; type: cell-based, human; conditions: 10 μM
ACHN = experiment: NCI one-dose screening, renal cancer ACHN; type: cell-based, human; conditions: 10 μM
NCl/ADR-RES = experiment: NCI one-dose screening, breast cancer NCl/ADR-RES; type: cell-based, human; conditions: 10 μM; listed under Ovarian cancer
NCI-H460 = experiment: NCI one-dose screening, non-small cell lung cancer NCI-H460; type: cell-based, human; conditions: 10 μM
COLO 205 = experiment: NCI one-dose screening, colon cancer COLO 205; type: cell-based, human; conditions: 10 μM
MDA, -MB-435 = experiment: NCI one-dose screening, breast cancer MDA, -MB-435; type: cell-based, human; conditions: 10 μM; listed under Melanoma
SF-539 = experiment: NCI one-dose screening, CNS cancer SF-539; type: cell-based, human; conditions: 10 μM
T-47D = experiment: NCI one-dose screening, breast cancer T-47D; type: cell-based, human; conditions: 10 μM
UACC-257 = experiment: NCI one-dose screening, melanoma UACC-257; type: cell-based, human; conditions: 10 μM
786-O = experiment: NCI one-dose screening, renal cancer 786-O; type: cell-based, human; conditions: 10 μM
PC-3 = experiment: NCI one-dose screening, prostate cancer PC-3; type: cell-based, human; conditions: 10 μM
HOP-92 = experiment: NCI one-dose screening, non-small cell lung cancer HOP-92; type: cell-based, human; conditions: 10 μM
human tumor cell lines = experiment: NCI one-dose screening, Mean / Delta / Range of growth percent over all tested cell lines; type: cell-based; conditions: 10 μM
SK-MEL-2 = experiment: NCI one-dose screening, melanoma SK-MEL-2; type: cell-based, human; conditions: 10 μM
SF-268 = experiment: NCI one-dose screening, CNS cancer SF-268; type: cell-based, human; conditions: 10 μM
LOX IMVI = experiment: NCI one-dose screening, melanoma LOX IMVI; type: cell-based, human; conditions: 10 μM
SN12C = experiment: NCI one-dose screening, renal cancer SN12C; type: cell-based, human; conditions: 10 μM
HL-60, TB = experiment: NCI one-dose screening, leukemia HL-60, TB; type: cell-based, human; conditions: 10 μM
NCI-H23 = experiment: NCI one-dose screening, non-small cell lung cancer NCI-H23; type: cell-based, human; conditions: 10 μM
HCC-2998 = experiment: NCI one-dose screening, colon cancer HCC-2998; type: cell-based, human; conditions: 10 μM

SMILES: O=C1c2ccccc2C(=O)c2c1cc(Sc1ccccc1Br)c1nsnc21 [C27, 4-(2-bromo-phenylthio)anthra[2,1-c] [1,2,5]thiadiazol oxazole-6,11-dione]
- Growth Percent MALME-3M (MALME-3M): 35.27%
- Growth Percent M14 (M14): 59.45%
- Growth Percent SK-OV-3 (SK-OV-3): 66.68%
- Growth Percent SK-MEL-28 (SK-MEL-28): 64.65%
- Growth Percent BT-549 (BT-549): 52.19%
- Growth Percent OVCAR-8 (OVCAR-8): 2.47%
- Growth Percent RXF 393 (RXF, 393): −8.53%
- Growth Percent NCI-H226 (NCI-H226): 92.07%
- Growth Percent UACC-62 (UACC-62): 39.58%
- Growth Percent OVCAR-3 (OVCAR-3): −65.85%
- IC50 [1]: 5.76 µM
- Growth Percent HOP-62 (HOP-62): 4.88%
- Growth Percent MDA-MB-231/ATCC (MDA-MB-231/ATCC): 16.85%
- Growth Percent A498 [2]: 24.25%
- Growth Percent KM12 (KM12): 57.85%
- Growth Percent TK-10 (TK-10): 76.52%
- Growth Percent SK-MEL-5 (SK-MEL-5): 46.26%
- Growth Percent U251 (U251): 11.49%
- Growth Percent MDA-MB-468 (MDA-MB-468): −79.88%
- Growth Percent K562 (K562cell line): 29.66%
- Growth Percent SNB-75 (SNB-75): 47.20%
- Growth Percent EKVX (EKVX): 77.74%
- Growth Percent SF-295 (SF-295): 100.07%
- Growth Percent SNB-19 (SNB-19): 71.38%
- Growth Percent IGROV1 (IGROV1): 27.94%
- Growth Percent OVCAR-5 (OVCAR-5): 120.52%
- Growth Percent HS 578T (HS 578-T): 54.25%
- Growth Percent MOLT-4 (MOLT-4): 29.67%
- Growth Percent NCI-H522 (NCI-H522): 30.77%
- Growth Percent CAKI-1 (CAKI-1): 29.67%
- Growth Percent RPMI-8226 (PRMI-8226 cell line): 9.40%
- Growth Percent DU145 (DU145): 50.57%
- Growth Percent MCF7 (MCF7): −6.39%
- Growth Percent HT29 (HT29): 96.46%
- Growth Percent UO-31 (UO-31): 56.15%
- Growth Percent A549/ATCC (A549/ATCC): 95.37%
- Growth Percent HCT-116 (HCT-116): 16.62%
- Growth Percent SR (SR): 2.94%
- Growth Percent HCT-15 (HCT-15): 39.74%
- Growth Percent ACHN (ACHN): 25.50%
- Growth Percent NCI/ADR-RES (NCl/ADR-RES): −29.94%
- Growth Percent NCI-H460 (NCI-H460): 58.24%
- Growth Percent COLO 205 (COLO 205): 97.36%
- Growth Percent MDA-MB-435 (MDA, -MB-435): −72.95%
- Growth Percent SF-539 (SF-539): −5.66%
- Growth Percent T-47D (T-47D): −33.05%
- Growth Percent UACC-257 (UACC-257): 4.75%
- Growth Percent 786-0 (786-O): −6.19%
- Growth Percent PC-3 (PC-3): 4.23%
- Growth Percent HOP-92 (HOP-92): 37.57%
- Growth Percent Delta (human tumor cell lines; delta over all cell lines): 109.49%
- Growth Percent Mean (human tumor cell lines; mean over all cell lines): 29.61%
- Growth Percent Range (human tumor cell lines; range over all cell lines): 200.40%
- Growth Percent SK-MEL-2 (SK-MEL-2): 35.02%
- Growth Percent SF-268 (SF-268): −5.11%
- Growth Percent LOX IMVI (LOX IMVI): −15.34%
- Growth Percent SN12C (SN12C): 22.56%
- Growth Percent HL-60(TB) (HL-60, TB): −43.96%
- Growth Percent NCI-H23 (NCI-H23): 18.02%
- Growth Percent HCC-2998 (HCC-2998): 78.44%
